Results: PMC6683251, “Flavanol Bioavailability in Two Cocoa Products with Different Phenolic Content. A Comparative Study in Humans” (Nutrients, 2019)
Read-outs that look alike come from different tables or passages of the source.

Key:
[1] = Urinary excretion of flavanol metabolites (0-24 h) after a single serving of soluble cocoa product (HPLC-ESI-QToF-MS); type: in vivo, human; conditions: mean ± SD, n = 13; for Excreted in urine, Total: 24 h urine; for Excreted in urine, Basal: basal urine (−2–0 h, before intake)
Protocol: They were non-smoker, non-vegetarian, non-pregnant women, who were not taking any medication or nutritional supplements, and were not suffering from any chronic pathology or gastrointestinal disorder. The sample size was estimated attending to similar previous bioavailability studies. The volunteers gave their informed consent prior to participation.
(§1) The present randomized, single-blind study was carried out at the Human Nutrition Unit (HNU) of the Institute of Food Science, Technology and Nutrition (ICTAN). Volunteers attended the HNU on two days, separated by two weeks. Three days previous to each visit, participants were instructed not to consume cocoa products (chocolate, soluble cocoa, etc.), juices, tea, wine, grape must, oranges, tangerines, apples, grapes, strawberries or other berries, beets, onions, soybeans and soy derivatives.
On each intervention day, volunteers arrived at the HNU after an overnight fast. […] The soluble cocoa products, either 15 g of CC or 25 g CC-PP, were dissolved in 200 mL of semi-skimmed milk following manufacturer’s preparation instructions. Plasma was separated by centrifugation (10 min, 3000 rpm, 4 °C) and stored at −80 °C until further analysis. […] A polyphenol-free breakfast, lunch and afternoon snack were provided 2 h, 4 h, and 8 h after consumption of cocoa products, and water and isotonic beverages were available ad libitum.
Urine samples were diluted with an equivalent volume of Milli-Q water (50%) and centrifuged at 14000 rpm (10 min, 4 °C). Supernatants were filtered (0.45 μm pore-size cellulose-acetate membrane filters) and a 5 µL aliquot was directly injected into the LC-ESI-QToF-MS equipment.
The test samples, either 30 μL of the plasma extract or 5 μL of diluted urine, were injected and separated using a mobile phase consisting of Milli-Q water (phase A) and acetonitrile (phase B), both containing 0.1% formic acid, at a flow rate of 0.3 mL/min. The mobile phase was initially programmed with 90% of solvent A and 10% of B. The elution program increased to 30% of solvent B in 10 min. Then, the initial conditions (10% solvent B) were recovered in 5 min and maintained for 5 min.
Due to the lack of standards for certain phase II metabolites, they were tentatively quantified using the calibration curves of their corresponding phenolic precursors. […] The rest of microbial metabolites identified, derivatives of hydroxyphenylpropionic, hydroxyphenylacetic, hydroxybenzoic and hippuric acids, were quantified using their respective commercially available standards. Urine concentration of the excreted metabolites was normalized by the volume excreted in each studied interval. […] Calibration curves were freshly prepared in a pool of both plasma and urine due to matrix effects.
Statistical analyses were carried out using the program SPSS (version 23.0, SPSS, Inc., IBM Company, New York, NY, USA). Significant differences between metabolites excreted in urine after consumption of CC and CC-PP cocoa products were evaluated based on non-parametric Wilcoxon test (p < 0.05). To determine the absorption and elimination of epicatechin metabolites after consumption of the soluble cocoa products, metabolite nutrikinetics were studied using the pharmacokinetic functions of Microsoft Excel, calculating the maximum concentration (Cmax), area under curve (AUC) and time to reach maximum concentration (Tmax). Data are expressed as mean ± standard deviation.

[2] = Plasma nutrikinetics of flavanol metabolites after a single serving of soluble cocoa product (HPLC-ESI-QToF-MS); type: in vivo, human; conditions: mean ± SD, n = 13; for AUC: human plasma 0-8 h; for Tmax / Cmax: human plasma; for Cmax: read-out: Cmax
Protocol: The study was carried out in thirteen healthy subjects (3 men and 10 women); the mens’ average age and body mass index were 26.67 ± 3.21 year and 22.47 ± 2.97 kg/m^2, respectively, and womens’ were 32.60 ± 9.85 year and 23.36 ± 3.73 kg/m^2, respectively. They were non-smoker, non-vegetarian, non-pregnant women, who were not taking any medication or nutritional supplements, and were not suffering from any chronic pathology or gastrointestinal disorder. The sample size was estimated attending to similar previous bioavailability studies. The volunteers gave their informed consent prior to participation.
as §1, with “derivatives. In addition, volunteers were asked to complete a 24 h food intake recall the day before they attended the HNU in order to monitor any possible food restriction incompliance.” for “derivatives.”
On each intervention day, volunteers arrived at the HNU after an overnight fast. Prior to the intake of the soluble cocoa product, a nurse inserted a cannula in the cubital vein of the non-prevailing arm of the volunteers and blood samples were collected into EDTA-coated tubes at baseline (t = 0) and 0.5, 1, 2, 3, 4, 6, and 8 h after consuming the corresponding cocoa product. The soluble cocoa products, either 15 g of CC or 25 g CC-PP, were dissolved in 200 mL of semi-skimmed milk following manufacturer’s preparation instructions. Plasma was separated by centrifugation (10 min, 3000 rpm, 4 °C) and stored at −80 °C until further analysis. Urine samples were collected at different time intervals (t = −2–0, 0–4, 4–8, 8–12, and 12–24 h) in urine collection flasks that contained 0.5 g of ascorbic acid as preservative and were aliquoted and frozen at −20 °C until analysis. A polyphenol-free breakfast, lunch and afternoon snack were provided 2 h, 4 h, and 8 h after consumption of cocoa products, and water and isotonic beverages were available ad libitum.
A liquid–liquid extraction and protein precipitation with acetonitrile was used to isolate metabolites from plasma. A 1 mL defrosted plasma sample was mixed with 50 μL of ascorbic acid (0.2 g/mL). After vortexing the aqueous mixture, it was added drop wise to 750 μL of cold acetonitrile and vortexed for 2 min before centrifuging at 12,000 rpm for 10 min at 4 °C. The supernatant was separated, and the pellet was re-extracted twice more following the same procedure. Supernatants were combined and reduced to dryness under a stream of nitrogen at 30 °C. The dried samples were resuspended in 150 μL of aqueous formic acid (0.1%) containing 10% acetonitrile acidified with 0.1% formic acid and centrifuged at 4 °C for 20 min at 14,000 rpm. The final supernatant was collected, filtered (0.45 μm pore-size, cellulose-acetate membrane filters, Albet, Dassel (Germany)) and 30 μL were analyzed by high-performance liquid chromatography coupled to electrospray ionisation and quadrupole time-of-flight mass spectrometry (HPLC-ESI-QToF-MS).
Analyses were performed on an Agilent 1200 series LC system coupled to an Agilent 6530A Accurate-Mass Quadrupole Time-Of-Flight (Q-ToF) with ESI-Jet Stream Technology (Agilent Technologies). Compounds were separated on a reverse-phase Ascentis Express C18 (15 cm × 3 mm, […]) column (Sigma-Aldrich Química, Madrid) preceded by a Supelco 55215-U guard column at 30 °C. […]

[3] = after CC-PP (68.25 mg flavanols)

| Molecule | Excreted in urine, Total [1, 3] [µmol] | Excreted in urine, 0–4 h [1, 3] | Excreted in urine, 4–8 h [1, 3] | Excreted in urine, 8–12 h [1, 3] | Excreted in urine, 12–24 h [1, 3] | Excreted in urine, Total ([1]; after CC (19.80 mg flavanols)) | Excreted in urine, 0–4 h ([1]; after CC (19.80 mg flavanols)) | Excreted in urine, 4–8 h ([1]; after CC (19.80 mg flavanols)) | AUC ([2]; after CC (19.80 mg flavanols)) | AUC [2, 3] | Tmax ([2]; after CC (19.80 mg flavanols)) [h] | Cmax ([2]; after CC (15 g in 200 mL semi-skimmed milk, 19.80 mg flavanols)) [nM] | Tmax [2, 3] [h] | Cmax ([2]; after CC-PP (25 g in 200 mL semi-skimmed milk, 68.25 mg flavanols)) [nM] | Excreted in urine, Basal ([1]; CC intervention) [µmol] | Excreted in urine, Basal ([1]; CC-PP intervention) | Excreted in urine, 8–12 h ([1]; after CC (19.80 mg flavanols)) | Excreted in urine, 12–24 h ([1]; after CC (19.80 mg flavanols)) |
| --- | --- | --- | --- | --- | --- | --- | --- | --- | --- | --- | --- | --- | --- | --- | --- | --- | --- | --- |
| 4-Hydroxy-5-(hydroxyphenyl)valeric acid-glucuronide [HHPVA-glucuronide] | 1.052 ± 0.182 | <L.Q. | 0.714 ± 0.088 µmol | 0.087 ± 0.019 µmol | 0.251 ± 0.075 µmol |  |  |  |  |  |  |  |  |  |  |  |  |  |
| Epicatechin-3′-methoxy-glucuronide | 0.121 ± 0.036 | 0.121 ± 0.036 µmol | <L.Q. | <L.Q. |  | <L.Q. * | <L.Q. | <L.Q. |  |  |  |  |  |  |  |  |  |  |
| 5-Phenyl-γ-valerolactone-methoxy-glucuronide [PVL-methoxy-glucuronide] |  |  |  |  |  |  |  |  | 0.078 ± 0.032 | 0.091 ± 0.059 | 5.3 ± 1.0 | 22 ± 1 | 5.6 ± 1.3 | 27 ± 3 |  |  |  |  |
| O=C(O)CCc1ccc(O)cc1 [Hydroxyphenylpropionic acid] | 1.204 ± 0.243 | 0.350 ± 0.038 µmol | 0.356 ± 0.076 µmol | 0.140 ± 0.041 µmol | 0.284 ± 0.075 µmol | 0.883 ± 0.154 µmol | 0.226 ± 0.046 µmol | 0.259 ± 0.043 µmol |  |  |  |  |  |  | 0.118 ± 0.023 | 0.074 ± 0.013 µmol | 0.077 ± 0.018 µmol | 0.203 ± 0.025 µmol |
| COc1cc(CCC(=O)O)ccc1O [3-Methoxy-4-hydroxyphenylpropionic acid] | 0.461 ± 0.138 | 0.175 ± 0.054 µmol | <L.Q. | <L.Q. | 0.199 ± 0.052 µmol | 0.248 ± 0.071 µmol | 0.144 ± 0.044 µmol | <L.Q. |  |  |  |  |  |  | 0.104 ± 0.027 | 0.077 ± 0.032 µmol | <L.Q. | <L.Q. |
| Hydroxybenzoic acid [Hidroxybenzoic acid] | 1.380 ± 0.365 | 0.396 ± 0.060 µmol | 0.298 ± 0.036 µmol | 0.172 ± 0.063 µmol | 0.302 ± 0.169 µmol | 0.798 ± 0.162 µmol | 0.145 ± 0.027 µmol | 0.200 ± 0.051 µmol |  |  |  |  |  |  | 0.188 ± 0.041 | 0.212 ± 0.037 µmol | 0.070 ± 0.018 µmol | 0.195 ± 0.025 µmol |
| O=C1CCC(Cc2cccc(O)c2)O1 (stereo not drawn) [HPVL, 5-(3′-Hydroxyphenyl)-γ-valerolactone] | 0.104 ± 0.041 | <L.Q. | 0.104 ± 0.041 µmol | <L.Q. | <L.Q. | <L.Q. * |  | <L.Q. |  |  |  |  |  |  |  |  | <L.Q. | <L.Q. |
| COc1ccc(/C=C/C(=O)O)cc1O [Isoferulic acid] | 0.686 ± 0.356 | 0.164 ± 0.044 µmol | 0.160 ± 0.066 µmol | 0.152 ± 0.094 µmol | 0.210 ± 0.152 µmol | 0.522 ± 0.290 µmol | 0.086 ± 0.028 µmol | 0.096 ± 0.040 µmol |  |  |  |  |  |  | 0.170 ± 0.137 | <L.Q. | 0.088 ± 0.069 µmol | 0.082 ± 0.016 µmol |
